In patent publication US20220326218A1, “COMPOSITION AND METHOD FOR INHIBITING BORC COMPLEX TO TREAT CANCERS WITH NF1 DEFICIENCY AND DYSREGULATED RAS SIGNALING” (THE TRUSTEES OF DARTMOUTH COLLEGE, priority 2019, published 2022):

How the values were obtained:
[1] = system: BNIP3L/Nix; experiment: qPCR of BNIP3L/Nix transcript; assay type: cell-based, human; details: U87-MG
[2] = system: γ-H2AX; experiment: Immunofluorescence staining for DNA damage marker γ-H2AX; assay type: cell-based, human; details: U87-MG, 2 μM, 24 h
Procedure: (§1) U87-MG cells were plated at a concentration of 50,000 cells/well onto precoated poly-D-lysine (PDL) coverslips (Neuvitro) in 24-well plates (Falcon) and allowed to adhere overnight. Medium was removed and replaced with treatment-laced media normalized to DMSO, and cells were treated for the indicated timepoints. At the time of collection, cells were washed with PBS and fixed with 4% paraformaldehyde without methanol (EMS) or 100% methanol (Fischer). Coverslips were washed with Tween20-containing PBS (PBST; Fischer). Following permeabilization with 0.5% Triton X-100 in PBS (Fischer), coverslips were blocked for 1 h at room temperature in IF Buffer (0.05% azide, 0.2% Triton X-100, 2% Normal Goat Serum or, for 8-OHG, Normal Donkey Serum). The following primary antibodies were used for 1 hour at room temperature unless specified: AlexaFluor 488 pre-conjugated anti-γ-H2AX (N1-431) mouse monoclonal (30 minutes; BD Biosciences), anti-cleaved caspase 3 (Asp175) rabbit polyclonal (Cell Signaling), anti-SQSTM1/p62 (D-3) mouse monoclonal (Santa Cruz), anti-8-Hydroxyguanosine goat polyclonal (1:200; Millipore), anti-LAMP1 (D4O1S) mouse monoclonal (O/N at 4° C.; Cell Signaling), anti-BNIP3L/Nix (D4R4B) rabbit monoclonal (O/N at 4° C.; Cell Signaling), anti-FLAG (M2) mouse monoclonal (2 hours at 37° C.; Sigma-Aldrich). […]

[3] = system: cleaved caspase-3; experiment: Immunofluorescence staining for cleaved caspase-3; assay type: cell-based, human; details: U87-MG, 2 μM, 48 h
Procedure: as §1

[4] = target: T1, proteasomal active sites (Homo sapiens, UniProt P28072+P28074+Q99436); experiment: MV-151 proteasome active site inhibition assay; assay type: cell-based; details: U87-MG; Y102 2 μM 24 h; positive control 1 μM Bortezomib and 10 μM MG-132 2 h
T1 construct: endogenous in cells; host or cells: U87-MG
Procedure: U87-MG cells were plated at 500,000 cells/well in 6-well plates and allowed to adhere overnight (Falcon). Medium was removed and replaced with fresh medium containing Y102 or vehicle DMSO and treated for 24 h. As a positive control, one well was treated for 2 h with 1 μM Bz/10 μM MG-132.
Cells were collected after treatment by washing with PBS, harvested with trypsin plus agitation to detach cells, spun down in a centrifuge, and resuspended in PBS to wash. Cells were transferred to 1.5 mL microcentrifuge tubes, pelleted, and resuspended in 20 μL digitonin lysis buffer (50 mM Tris HCl pH 7.5, 250 mM sucrose, 2 mM EDTA, 1 mM ATP, 1 mM DTT, and 0.05% digitonin). Cells were mixed by pipetting, incubated on ice for 20 minutes, and the lysate was cleared by centrifugation. Protein concentrations were determined using a Bradford protein assay (Bio-Rad). 10 μg of protein lysate was incubated for 20 minutes with 20 μM MV-151 in a 37° C. water bath. 4× loading dye was added to the samples and proteins were separated by sodium dodecyl sulfate-polyacrylamide gel electrophoresis (SDS-PAGE) on a 4-15% polyacrylamide gradient gel (Bio-Rad). Gel was imaged on a Typhoon scanner at an excitation of 532 nm and an emission of 560 nm to detect MV-151 fluorescence. Following imaging, proteins were transferred to nitrocellulose. The blot was probed for α-Tubulin as a loading control. […]

[5] = system: p21; experiment: Immunofluorescence of p21 expression and nucleus size; assay type: cell-based, human; details: U87-MG, 2 μM, 24 h
Procedure: as §1

[6] = system: LC3-II; experiment: Western immunoblotting of autophagy marker LC3-I/II; assay type: cell-based, human; details: U87-MG, 12 h treatment +/- 12 h HCQ co-treatment, total 24 h
Procedure: U87-MG cells were plated at 500,000 cells/well in 6-well plates and allowed to adhere overnight (Falcon). Medium was removed and replaced with fresh medium containing drugs or compounds for the indicated timepoints. Cells were collected after treatment by washing with PBS, harvested with trypsin plus agitation to detach cells, pelleted in a centrifuge and resuspended in PBS to wash. Cells were transferred to 1.5 mL microcentrifuge tubes, pelleted, and resuspended in RIPA lysis buffer (50 mM Tris pH 8.0, 150 mM NaCl, 1% nonidet P40, 0.5% sodium deoxycholate, and 0.05% SDS) containing 1 mM NaVO4, 1 mM NaF, 1 mM phenylmethylsulfonyl fluoride, 0.1 μg/mL antipain, 1 μM aprotinin, 100 μM benzamidine HCl, 0.1 μg/mL leupeptin, 0.1 μg/mL pepstatin, and 0.1 μg/mL soybean trypsin inhibitor. Protein was quantified using a BCA assay kit (Pierce). 50 μg of protein was prepared in 1× Laemmli sample buffer (50 mM Tris pH 6.8, 0.02% w/v bromophenol blue, 2% w/v SDS, 10% v/v glycerol, 1% v/v beta-mercaptoethanol, 12.5 mM EDTA) and separated by SDS-PAGE on a 4-15% polyacrylamide gradient gel (Bio-Rad). […]

[7] = system: U87-MG cells; experiment: β-Galactosidase senescence assay; assay type: cell-based, human; details: 2 μM, 72 h
Procedure: U87-MG cells were plated at 100,000 cells/well and allowed to adhere overnight. Medium was removed and replaced with medium containing DMSO, 2 μM Y102, or 100 nM Doxorubicin for a total of 72 hours. Cells were collected and stained for β-galactosidase using the Senescence β-Galactosidase Staining Kit (Cell Signaling). 100 cells were counted per condition; graph represents results from triplicate experiments.

Cn1cnnc1S/C=C/C(=O)c1ccc(F)cc1 [Y102]
BNIP3L/Nix RNA levels versus DMSO [1]: little difference | change in γ-H2AX expression [2]: no significant change | amount of cleaved caspase-3 versus vehicle control [3]: No difference | inhibition of the proteasomal subunits (MV-151 competitive binding) [4]: not | nucleus size [5]: increase | p21 expression [5]: increase | LC3-II accumulation (western immunoblotting) [6]: did not result in LC3-II accumulation | senescence (senescence-associated β-galactosidase) [7]: no indication
